Data from patent US20240270740A1, “INHIBITORS OF CYCLIC GMP-AMP SYNTHASE AND USES THEREOF” (Ventus Therapeutics U.S., Inc., priority 2022, published 2024).

molecular target: hcGAS (Homo sapiens, UniProt Q8N884); assay: hcGAS Kinase-Glo assay (ATP depletion); type: biochemical; conditions: 40 nM hcGAS, 100 μM ATP, 100 μM GTP, 25 nM dsDNA, 3 h incubation
Protocol: cGAS catalyzes the cyclization of ATP and GTP to produce cGAMP, which is the activating ligand of STING. Human cGAS (hcGAS) inhibition can thus be quantified by measuring how much cGAMP is formed either indirectly, by monitoring ATP-depletion as in the hcGAS Kinase-Glo assay (as described below), or directly, such as using the hcGAS LCMS assay (as described below).
(i) hcGAS Kinase-Glo Assay
Compounds were tested for their human-cGAS […] inhibition activity using the methodology reported in Lama et al., “Development of human cGAS-specific small molecule inhibitors for repression of dsDNA-triggered interferon expression”, Nature Communications 10, Article number: 2261 (2019), with slight changes to some conditions as shown in Table B.
The results of the assay, expressed in IC50 values, are reported in Table D with the following designations: A represents an IC50 value<0.01 μM; B represents an IC50 value≥0.01 μM and <0.03 μM; C represents an IC50 value≥0.03 μM and <0.1 μM; D represents an IC50 value≥0.1.

Sequence of hcGAS (Q8N884 whole entry): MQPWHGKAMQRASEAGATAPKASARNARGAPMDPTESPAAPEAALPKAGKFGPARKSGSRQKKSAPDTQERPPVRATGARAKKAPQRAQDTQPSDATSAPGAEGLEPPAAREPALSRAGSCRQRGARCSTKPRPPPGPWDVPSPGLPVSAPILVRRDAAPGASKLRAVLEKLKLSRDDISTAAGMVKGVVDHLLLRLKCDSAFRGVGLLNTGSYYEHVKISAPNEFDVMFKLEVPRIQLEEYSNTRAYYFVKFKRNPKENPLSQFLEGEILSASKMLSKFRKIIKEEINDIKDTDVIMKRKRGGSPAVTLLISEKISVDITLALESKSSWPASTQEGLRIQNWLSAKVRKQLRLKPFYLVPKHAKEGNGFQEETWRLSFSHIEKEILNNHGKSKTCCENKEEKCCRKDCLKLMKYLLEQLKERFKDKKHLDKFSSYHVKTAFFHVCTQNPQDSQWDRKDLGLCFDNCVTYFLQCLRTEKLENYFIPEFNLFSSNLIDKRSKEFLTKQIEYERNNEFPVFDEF

**Q.** Which IC50 does the source give for COc1c(N[C@H]2CC[C@@H](OC)CC2)cc(C(=O)Nc2nnc(-n3nccc3C)s2)oc1=O [Compound 219, 3-methoxy-4-((1,4-cis-4-methoxycyclohexyl)amino)-N-(5-(5-methyl-1H-pyrazol-1-yl)-1,3,4-thiadiazol-2-yl)-2-oxo-2H-pyran-6-carboxamide] here?
**A.** 10 to 30 nM

**Q.** With COc1c(N[C@H]2C[C@@H](O)C2)cc(C(=O)Nc2nnc(-n3nccc3C)s2)oc1=O [Compound 65, 4-(((1,3-cis)-3-hydroxycyclobutyl)amino)-3-methoxy-N-(5-(5-methyl-1H-pyrazol-1-yl)-1,3,4-thiadiazol-2-yl)-2-oxo-2H-pyran-6-carboxamide] as the molecule, how does the IC50 read?
**A.** 30 to 100 nM

**Q.** With COc1c(NCC(F)(F)F)cc(C(=O)Nc2nnc(-n3nccc3C)s2)oc1=O [Compound 90, 3-methoxy-N-(5-(5-methyl-1H-pyrazol-1-yl)-1,3,4-thiadiazol-2-yl)-2-oxo-4-((2,2,2-trifluoroethyl)amino)-2H-pyran-6-carboxamide] as the molecule, how does the IC50 read?
**A.** 10 to 30 nM

**Q.** For COc1c(N2CCC(OC)CC2)cc(C(=O)Nc2nnc(-n3nccc3C)s2)oc1=O [Compound 19, 3-methoxy-4-(4-methoxypiperidin-1-yl)-N-(5-(5-methyl-1H-pyrazol-1-yl)-1,3,4-thiadiazol-2-yl)-2-oxo-2H-pyran-6-carboxamide], which IC50 is on record?
**A.** 10 to 30 nM

**Q.** With COCC1CCN(c2cc(C(=O)Nc3nnc(-n4nccc4C)s3)oc(=O)c2OC)CC1 [Compound 2, 3-methoxy-4-(4-(methoxymethyl)piperidin-1-yl)-N-(5-(5-methyl-1H-pyrazol-1-yl)-1,3,4-thiadiazol-2-yl)-2-oxo-2H-pyran-6-carboxamide] as the molecule, how does the IC50 read?
**A.** 10 to 30 nM

**Q.** COc1c(NCCN)cc(C(=O)Nc2nnc(-n3nccc3C)s2)oc1=O [Compound 203, 4-((2-aminoethyl)amino)-3-methoxy-N-(5-(5-methyl-1H-pyrazol-1-yl)-1,3,4-thiadiazol-2-yl)-2-oxo-2H-pyran-6-carboxamide] was tested. Which IC50 did it give?
**A.** ≥ 100 nM

**Q.** For COc1c(NCCN(C)C)cc(C(=O)Nc2nnc(-n3nccc3C)s2)oc1=O [Compound 181, 4-((2-(dimethylamino)ethyl)amino)-3-methoxy-N-(5-(5-methyl-1H-pyrazol-1-yl)-1,3,4-thiadiazol-2-yl)-2-oxo-2H-pyran-6-carboxamide], which IC50 is on record?
**A.** ≥ 100 nM

**Q.** How did the IC50 turn out when COc1c(N[C@@H]2CCS(=O)(=O)C2)cc(C(=O)Nc2nnc(-n3nccc3C)s2)oc1=O [Compound 82, (R)-4-((1,1-dioxidotetrahydrothiophen-3-yl)amino)-3-methoxy-N-(5-(5-methyl-1H-pyrazol-1-yl)-1,3,4-thiadiazol-2-yl)-2-oxo-2H-pyran-6-carboxamide] was run?
**A.** 30 to 100 nM

**Q.** How did the IC50 turn out when CNc1cc(C(=O)Nc2nnc(-n3nccc3C)s2)oc(=O)c1OC [Compound 105, 3-methoxy-N-(5-(5-methyl-1H-pyrazol-1-yl)-1,3,4-thiadiazol-2-yl)-4-(methylamino)-2-oxo-2H-pyran-6-carboxamide] was run?
**A.** 30 to 100 nM

**Q.** How did the IC50 turn out when COc1c(NC2CCS(=O)(=O)CC2)cc(C(=O)Nc2nnc(-n3nccc3C)s2)oc1=O [Compound 29, 4-((1,1-dioxidotetrahydro-2H-thiopyran-4-yl)amino)-3-methoxy-N-(5-(5-methyl-1H-pyrazol-1-yl)-1,3,4-thiadiazol-2-yl)-2-oxo-2H-pyran-6-carboxamide] was run?
**A.** 30 to 100 nM

**Q.** Which IC50 does the source give for COCCNc1cc(C(=O)Nc2nnc(-c3sncc3Cl)s2)oc(=O)c1OC [Compound 139, N-(5-(4-chloroisothiazol-5-yl)-1,3,4-thiadiazol-2-yl)-3-methoxy-4-((2-methoxyethyl)amino)-2-oxo-2H-pyran-6-carboxamide] here?
**A.** 30 to 100 nM

**Q.** Which IC50 does the source give for COCCNc1cc(C(=O)Nc2nnc(-n3nccc3Cl)s2)oc(=O)c1OC [Compound 148, N-[5-(5-chloropyrazol-1-yl)-1,3,4-thiadiazol-2-yl]-5-methoxy-4-[(2-methoxyethyl)amino]-6-oxopyran-2-carboxamide] here?
**A.** ≥ 100 nM

**Q.** For COc1c(NC2CC2)cc(C(=O)Nc2nnc(-n3nccc3C)s2)oc1=O [Compound 180, 4-(cyclopropylamino)-5-methoxy-N-[5-(5-methylpyrazol-1-yl)-1,3,4-thiadiazol-2-yl]-6-oxopyran-2-carboxamide], which IC50 is on record?
**A.** 30 to 100 nM

**Q.** With COc1c(N2CCC[C@H]2CO)cc(C(=O)Nc2nnc(-n3nccc3C)s2)oc1=O [Compound 40, (S)-4-(2-(hydroxymethyl)pyrrolidin-1-yl)-3-methoxy-N-(5-(5-methyl-1H-pyrazol-1-yl)-1,3,4-thiadiazol-2-yl)-2-oxo-2H-pyran-6-carboxamide] as the molecule, how does the IC50 read?
**A.** 10 to 30 nM

**Q.** With COC[C@H]1CCN(c2cc(C(=O)Nc3nnc(-n4nccc4C)s3)oc(=O)c2OC)C1 [Compound 87, (S)-3-methoxy-4-(3-(methoxymethyl)pyrrolidin-1-yl)-N-(5-(5-methyl-1H-pyrazol-1-yl)-1,3,4-thiadiazol-2-yl)-2-oxo-2H-pyran-6-carboxamide] as the molecule, how does the IC50 read?
**A.** 30 to 100 nM

**Q.** Which IC50 does the source give for COc1c(N[C@H]2CC[C@H](O)CC2)cc(C(=O)Nc2nnc(-n3nccc3C)s2)oc1=O [Compound 217] here?
**A.** 10 to 30 nM

**Q.** COc1c(NC2COC2)cc(C(=O)Nc2nnc(-n3nccc3C)s2)oc1=O [Compound 104, 3-methoxy-N-(5-(5-methyl-1H-pyrazol-1-yl)-1,3,4-thiadiazol-2-yl)-4-(oxetan-3-ylamino)-2-oxo-2H-pyran-6-carboxamide] was tested. Which IC50 did it give?
**A.** 30 to 100 nM

**Q.** COc1c(NCCO)cc(C(=O)Nc2nnc(-c3sccc3Cl)s2)oc1=O [Compound 147, N-[5-(3-chlorothiophen-2-yl)-1,3,4-thiadiazol-2-yl]-4-[(2-hydroxyethyl)amino]-5-methoxy-6-oxopyran-2-carboxamide] was tested. Which IC50 did it give?
**A.** ≥ 100 nM

**Q.** COCC12CC(Nc3cc(C(=O)Nc4nnc(-n5nccc5C)s4)oc(=O)c3OC)(C1)C2 [Compound 44, 3-methoxy-4-((3-(methoxymethyl)bicyclo[1.1.1]pentan-1-yl)amino)-N-(5-(5-methyl-1H-pyrazol-1-yl)-1,3,4-thiadiazol-2-yl)-2-oxo-2H-pyran-6-carboxamide] was tested. Which IC50 did it give?
**A.** 30 to 100 nM

**Q.** COc1c(NCC(F)F)cc(C(=O)Nc2nnc(-n3nccc3C)s2)oc1=O [Compound 89, 4-((2,2-difluoroethyl)amino)-3-methoxy-N-(5-(5-methyl-1H-pyrazol-1-yl)-1,3,4-thiadiazol-2-yl)-2-oxo-2H-pyran-6-carboxamide] was tested. Which IC50 did it give?
**A.** 10 to 30 nM

**Q.** COCCNc1cc(C(=O)Nc2nnc(-c3c(C)csc3C#N)s2)oc(=O)c1OC [Compound 137, N-(5-(2-cyano-4-methylthiophen-3-yl)-1,3,4-thiadiazol-2-yl)-3-methoxy-4-((2-methoxyethyl)amino)-2-oxo-2H-pyran-6-carboxamide] was tested. Which IC50 did it give?
**A.** ≥ 100 nM

**Q.** How did the IC50 turn out when CNCCNc1cc(C(=O)Nc2nnc(-n3nccc3C)s2)oc(=O)c1OC [Compound 204, 3-methoxy-N-(5-(5-methyl-1H-pyrazol-1-yl)-1,3,4-thiadiazol-2-yl)-4-((2-(methylamino)ethyl)amino)-2-oxo-2H-pyran-6-carboxamide] was run?
**A.** ≥ 100 nM

**Q.** With COc1c(N2CC[C@H](CO)C2)cc(C(=O)Nc2nnc(-n3nccc3C)s2)oc1=O [Compound 58, (S)-4-(3-(hydroxymethyl)pyrrolidin-1-yl)-3-methoxy-N-(5-(5-methyl-1H-pyrazol-1-yl)-1,3,4-thiadiazol-2-yl)-2-oxo-2H-pyran-6-carboxamide] as the molecule, how does the IC50 read?
**A.** 10 to 30 nM

**Q.** With COCCNc1cc(C(=O)Nc2nnc(-n3nccc3C(F)F)s2)oc(=O)c1OC [Compound 144, N-(5-(5-(difluoromethyl)-1H-pyrazol-1-yl)-1,3,4-thiadiazol-2-yl)-3-methoxy-4-((2-methoxyethyl)amino)-2-oxo-2H-pyran-6-carboxamide] as the molecule, how does the IC50 read?
**A.** 10 to 30 nM

**Q.** COc1c(NCCCO)cc(C(=O)Nc2nnc(-n3nccc3C)s2)oc1=O [Compound 35, 4-((3-hydroxypropyl)amino)-3-methoxy-N-(5-(5-methyl-1H-pyrazol-1-yl)-1,3,4-thiadiazol-2-yl)-2-oxo-2H-pyran-6-carboxamide] was tested. Which IC50 did it give?
**A.** 10 to 30 nM

**Q.** For COc1c(N[C@H]2C[C@@H](OC)C2)cc(C(=O)Nc2nnc(-n3nccc3C)s2)oc1=O [Compound 9, 3-methoxy-4-(((1,3-cis)-3-methoxycyclobutyl)amino)-N-(5-(5-methyl-1H-pyrazol-1-yl)-1,3,4-thiadiazol-2-yl)-2-oxo-2H-pyran-6-carboxamide], which IC50 is on record?
**A.** 30 to 100 nM

**Q.** For COCCNc1cc(C(=O)Nc2nnc(-n3ncc(F)c3Cl)s2)oc(=O)c1OC [Compound 134, N-(5-(5-chloro-4-fluoro-1H-pyrazol-1-yl)-1,3,4-thiadiazol-2-yl)-5-methoxy-4-(2-methoxyethylamino)-6-oxo-6H-pyran-2-carboxamide], which IC50 is on record?
**A.** 30 to 100 nM

**Q.** Which IC50 does the source give for COc1c(N2CC[C@@H](CO)C2)cc(C(=O)Nc2nnc(-n3nccc3C)s2)oc1=O [Compound 88, (R)-4-(3-(hydroxymethyl)pyrrolidin-1-yl)-3-methoxy-N-(5-(5-methyl-1H-pyrazol-1-yl)-1,3,4-thiadiazol-2-yl)-2-oxo-2H-pyran-6-carboxamide] here?
**A.** 10 to 30 nM

**Q.** With COc1c(N[C@H](C)CO)cc(C(=O)Nc2nnc(-n3nccc3C)s2)oc1=O [Compound 25, (R)-4-((1-hydroxypropan-2-yl)amino)-3-methoxy-N-(5-(5-methyl-1H-pyrazol-1-yl)-1,3,4-thiadiazol-2-yl)-2-oxo-2H-pyran-6-carboxamide] as the molecule, how does the IC50 read?
**A.** 30 to 100 nM

**Q.** For COc1c(NC23CC(C(F)F)(C2)C3)cc(C(=O)Nc2nnc(-n3nccc3C)s2)oc1=O [Compound 115, 4-((3-(difluoromethyl)bicyclo[1.1.1]pentan-1-yl)amino)-3-methoxy-N-(5-(5-methyl-1H-pyrazol-1-yl)-1,3,4-thiadiazol-2-yl)-2-oxo-2H-pyran-6-carboxamide], which IC50 is on record?
**A.** 10 to 30 nM
